One test has as its target human orexin-2 receptor (Homo sapiens (Human), UniProt O43614). In words: Human orexin 2 receptor radioligand binding ([3H]-EMPA competition). The settings on record: HEK293 cells stably expressing human orexin-2 receptor; [3H]-EMPA 5 nM final; read-out: OR-2 Ki. As to the method: (§1) The in vitro affinity of the compounds for the human orexin-1 and orexin-2 receptors was determined by competitive radioligand binding using [^3H]SB SB674042 (1-(5-(2-fluoro-phenyl)-2-methyl-thiazol-4-yl)-1-((S)-2-(5-phenyl-(1,3,4)oxadiazol-2-ylmethyl)-pyrrolidin-1-yl)methanone) (Langmead et al., British Journal of Pharmacology 2004, 141:340-346.) and [^3H]EMPA (N-ethyl-2[(6-methoxy-pyridin-3-yl)-(toluene-2-sulfonyl)-amino]-N-pyridin-3-ylmethyl acetamide) (Malherbe et al., British Journal of Pharmacology, 2009, 156(8), 1326-1341), respectively.
Human Orexin 2 Receptor Radioligand Binding Studies
HEK293 stably expressing human orexin-2 receptor (Genebank accession number NM_001526) were grown to confluency in DMEM/F12 (Gibco, Cat #11039), in DMEM, 10% FBS, 1× Pen/Strep, 1× NaPyruvate, 1×HEPES, 600 ug/ml G418 media on 150 cm^2 tissue culture plates, washed with 5 mM EDTA in PBS (HyClone Dulbecco's Phosphate Buffered Saline 1× with Calcium and Magnesium, Cat #SH30264.01, hereafter referred to simply as PBS) and scraped into 50 ml tubes. After centrifugation (2K xG, 10 min at 4° C.), the supernatant was aspirated and the pellets frozen and stored at −80° C. Cells were resuspended in PBS in the presence of 1 tablet of protease inhibitor cocktail (Roche, Cat. #11836145001) per 50 mL. […] Competition binding experiments in 96 well polypropylene plates were performed using [^3H]-EMPA (Moravek Corporation, specific activity=27 Ci/mmol), diluted to a […] concentration in PBS (5 nM final concentration). Compounds were solubilized in 100% DMSO (Acros Organics, Cat. #61042-1000) and tested over a range of 7 concentrations (from 0.1 nM to 10 μM). The final concentration of DMSO in the reactions is equal to or less than 0.1%. Total and nonspecific binding was determined in the absence and presence of 10 μM (N-[2-(3,4-dimethoxyphenyl)ethyl]-N-methylnaphthalene-1-carboxamide, CAS Registry #1089563-88-1). The total volume of each reaction is 200 μL (20 μL of diluted compounds, 80 μL of [^3H]-EMPA diluted in PBS and 100 μL of the cell suspension). Reactions were run for 60 min at room temperature and terminated by filtration through GF/C filter plates (PerkinElmer, Cat. #6005174) presoaked in 0.3% polyethylenimine using the cell harvester (Perkin Elmer Filtermate). The plates were washed 3 times by aspirating 30 ml PBS through the plates. Plates were dried in 55° C. oven for 60 min, scintillation fluid was added, and the radioactivity was counted on a Topcount (Packard).

The target in a further test is human orexin 1 receptor (Homo sapiens (Human), UniProt O43613). In words: Human orexin 1 receptor radioligand binding ([3H]-SB674042 competition). The settings on record: CHO cells stably expressing human orexin 1 receptor; [3H]-SB674042 4 nM final; read-out: OR-1 Ki. As to the method:
as §1
Human Orexin 1 Receptor Radioligand Binding Studies
Chinese ovary cells (CHO) stably expressing human orexin 1 receptor (Genebank accession number NM_001526) were grown to confluency in DMEM/F12 (Gibco, Cat #11039), 10% FBS, 1× Pen/Strep, 600 μg/mL G418 media on 150 cm^2 tissue culture plates, washed with 5 mM EDTA in PBS (HyClone Dulbecco's Phoshpate Buffered Saline 1× with Calcium and Magnesium, Cat #SH30264.01, hereafter referred to simply as PBS) and scraped into 50 ml tubes. After centrifugation (2K xG, 10 min at 4° C.), the supernatant was aspirated and the pellets frozen and stored at −80° C. Cells were resuspended in PBS in the presence of 1 tablet of protease inhibitor cocktail (Roche, Cat. #11836145001) per 50 mL. […] Compounds were solubilized in 100% DMSO (Acros Organics, Cat. #61042-1000) and tested over a range of 7 concentrations (from 0.1 nM to 10 μM). The final concentration of DMSO in the reactions is equal to or less than 0.1%. Total and nonspecific binding was determined in the absence and presence of 10 μM (1-(6,8-difluoro-2-methylquinolin-4-yl)-3-[4-(dimethylamino)phenyl]urea, CAS Registry #288150-92-5). The total volume of each reaction is 200 μL (20 μL of diluted compounds, 80 μL of [^3H]-SB674042 diluted in PBS and 100 μL of the cell suspension). Reactions were run for 60 min at room temperature and terminated by filtration through GF/C filter plates (PerkinElmer, Cat. #6005174) presoaked in 0.3% polyethylenimine using the cell harvester (PerkinElmer Filtermate). The plates were washed 3 times by aspirating 30 ml PBS through the plates. Plates were dried in 55° C. oven for 60 min, scintillation fluid was added, and the radioactivity was counted on a Topcount (Packard).

Molecules are shown by their SMILES. pKi: −log10 of the molar value.

By pKi is commonly meant the negative decadic logarithm of the Ki, by convention in mol/L.

Sequence of human orexin 1 receptor (O43613 whole entry): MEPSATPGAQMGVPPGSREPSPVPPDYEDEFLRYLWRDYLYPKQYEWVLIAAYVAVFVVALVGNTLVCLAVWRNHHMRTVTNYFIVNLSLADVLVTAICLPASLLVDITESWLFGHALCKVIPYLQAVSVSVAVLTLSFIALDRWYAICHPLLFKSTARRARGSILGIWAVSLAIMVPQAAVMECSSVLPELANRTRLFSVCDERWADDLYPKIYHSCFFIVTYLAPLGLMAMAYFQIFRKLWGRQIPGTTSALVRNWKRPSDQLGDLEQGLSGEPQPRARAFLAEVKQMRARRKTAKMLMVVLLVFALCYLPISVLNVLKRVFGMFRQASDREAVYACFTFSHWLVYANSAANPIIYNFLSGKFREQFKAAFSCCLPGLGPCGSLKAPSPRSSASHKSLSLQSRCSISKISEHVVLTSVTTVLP
Sequence of human orexin-2 receptor (O43614 whole entry): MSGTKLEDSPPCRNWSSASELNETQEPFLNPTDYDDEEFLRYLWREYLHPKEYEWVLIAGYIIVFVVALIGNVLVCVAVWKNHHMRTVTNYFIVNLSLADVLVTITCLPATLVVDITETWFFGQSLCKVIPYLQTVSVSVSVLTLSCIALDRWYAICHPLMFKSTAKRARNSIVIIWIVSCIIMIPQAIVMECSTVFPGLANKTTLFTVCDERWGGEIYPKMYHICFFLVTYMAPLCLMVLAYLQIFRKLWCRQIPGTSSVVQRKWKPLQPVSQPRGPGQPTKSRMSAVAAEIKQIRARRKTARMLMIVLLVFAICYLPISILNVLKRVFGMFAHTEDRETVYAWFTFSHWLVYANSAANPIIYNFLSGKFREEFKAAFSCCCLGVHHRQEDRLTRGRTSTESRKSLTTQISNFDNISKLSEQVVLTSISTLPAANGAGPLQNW

`O=C(c1ccccc1-c1ccccc1)N1CCC2CN(c3nc4ccccc4o3)C2C1` (stereo not drawn) [Example 11, (8-Benzooxazol-2-yl-3,8-diaza-bicyclo[4.2.0]oct-3-yl)-biphenyl-2-yl-methanone]: the pKi at human orexin-2 receptor was 6.85; on human orexin 1 receptor, 6.84.

On to `COc1cccc(OC)c1C(=O)N1CCC2CN(c3cnc4ccccc4n3)C2C1` (stereo not drawn) [Example 12, (2,6-Dimethoxy-phenyl)-(8-quinoxalin-2-yl-3,8-diaza-bicyclo[4.2.0]oct-3-yl)-methanone], for which the figures for the pKi at human orexin-2 receptor and on human orexin 1 receptor were 6.68 and 6.18, respectively.

On to `O=C(c1ccccc1Br)N1CC[C@H]2CN(c3cnc4ccccc4n3)[C@H]2C1` [Example 13, (1R,6S)(2-Bromo-phenyl)-(8-quinoxalin-2-yl-3,8-diaza-bicyclo[4.2.0]oct-3-yl)-methanone], for which the negative-log Ki (pKi) was 6.84 on human orexin-2 receptor and 7.11 on human orexin 1 receptor.

For the compound `O=C(c1ccccc1-c1cccnc1)N1CC[C@H]2CN(c3cnc4ccccc4n3)[C@H]2C1` [Example 14, (1R,6S)(2-Pyridin-3-yl-phenyl)-(8-quinoxalin-2-yl-3,8-diaza-bicyclo[4.2.0]oct-3-yl)-methanone], the pKi was 6.94 on human orexin-2 receptor and 7.02 on human orexin 1 receptor.

Consider `COc1cccc(OC)c1C(=O)N1CCC2CN(c3nccc(-c4ccccc4)n3)C2C1` (stereo not drawn) [Example 15, (2,6-Dimethoxy-phenyl)-[8-(4-phenyl-pyrimidin-2-yl)-3,8-diaza-bicyclo[4.2.0]oct-3-yl]-methanone], for which the values for the pKi at human orexin-2 receptor and at human orexin 1 receptor were 6.59 and 6.63, respectively.

In the case of `COc1cccc(OC)c1C(=O)N1CCC2CN(c3nc4ccccc4o3)C2C1` (stereo not drawn) [Example 16, (8-Benzooxazol-2-yl-3,8-diaza-bicyclo[4.2.0]oct-3-yl)-(2,6-dimethoxy-phenyl)-methanone], the values for the pKi on human orexin-2 receptor and at human orexin 1 receptor were 6.55 and 6.34, respectively.

Turning to `Cc1cc(C)nc(N2C[C@H]3CCN(C(=O)c4ccccc4-c4ccccc4)C[C@H]32)n1` [Example 18, (1S,6R)Biphenyl-2-yl-[8-(4,6-dimethyl-pyrimidin-2-yl)-3,8-diaza-bicyclo[4.2.0]oct-3-yl]-methanone], the values for the pKi on human orexin-2 receptor and on human orexin 1 receptor were 6.12 and 5.42, respectively.

Regarding `Cc1ccc(C)c(S(=O)(=O)N2CCC3CN(c4nccc(-c5ccccc5)n4)C3C2)c1` (stereo not drawn) [Example 19, 3-(2,5-Dimethyl-benzenesulfonyl)-8-(4-phenyl-pyrimidin-2-yl)-3,8-diaza-bicyclo[4.2.0]octane], the negative-log Ki (pKi) on human orexin-2 receptor was 5.97; on human orexin 1 receptor, 6.60.

Consider `Cc1ccc(S(=O)(=O)N2CC[C@H]3CN(c4cnc5ccccc5n4)[C@H]3C2)c(C)c1` [Example 20, (1R,6S)2-[3-(2,4-Dimethyl-benzenesulfonyl)-3,8-diaza-bicyclo[4.2.0]oct-8-yl]-quinoxaline], for which the negative-log Ki (pKi) on human orexin-2 receptor was 5.68; at human orexin 1 receptor, 6.42.

Consider `Cc1ccc(C)c(S(=O)(=O)N2CCC3CN(c4cnc5ccccc5n4)C3C2)c1` (stereo not drawn) [Example 21, 2-[3-(2,5-Dimethyl-benzenesulfonyl)-3,8-diaza-bicyclo[4.2.0]oct-8-yl]-quinoxaline], for which the negative logarithm of the Ki (pKi) is 5.42 on human orexin-2 receptor and 5.92 at human orexin 1 receptor.

For `Cc1cc(C)nc(N2C[C@@H]3CCN(C(=O)c4c(F)cccc4-c4ncccn4)C[C@@H]32)n1` [Example 22, (1R,6S)[8-(4,6-Dimethyl-pyrimidin-2-yl)-3,8-diaza-bicyclo[4.2.0]oct-3-yl]-(2-fluoro-6-pyrimidin-2-yl-phenyl)-methanone], the pKi is 7.54 on human orexin-2 receptor and 6.33 at human orexin 1 receptor.

As for `Cc1cc(C)nc(N2C[C@@H]3CCN(C(=O)c4cc(F)ccc4-c4ncccn4)C[C@@H]32)n1` [Example 23, (1R,6S)[8-(4,6-Dimethyl-pyrimidin-2-yl)-3,8-diaza-bicyclo[4.2.0]oct-3-yl]-(5-fluoro-2-pyrimidin-2-yl-phenyl)-methanone], the negative logarithm of the Ki (pKi) on human orexin-2 receptor was 7.70; at human orexin 1 receptor it was 6.21.
